Numbers after ± are expanded uncertainties.
Test: mn = molality of the nth substance listed, in mol/kg
Settings: 298.15 K; 101.33 kPa; Liquid; Calvet calorimetry; m1 = 0.1
With `N[C@@H](CO)C(=O)O` [L-serine] + O the “molar enthalpy of solution” value was 2.69 ± 0.0454 kcal/mol.
For `C[C@H](N)C(=O)O` [(S)-2-aminopropanoic acid] + O, the “molar enthalpy of solution” value was 1.86 ± 0.0359 kcal/mol.
For `NCC(=O)O` [2-aminoacetic acid] + O, the “molar enthalpy of solution” value was 3.38 ± 0.0526 kcal/mol.

From the NIST ThermoML archive (doi:10.1016/j.tca.2005.04.002)
